Laboratory results taken from PubChem BioAssay AID330 (DTP/NCI, 2004).
Where “and” joins values, the source holds several entries; their conditions need not be identical. Equal entries are not always repeated. Toxic doses and inconclusive results are not listed. The calls were made as follows: active = survival T/C of 150% or more; inactive = T/C below 125% in these data.

Test system: P388 leukemia ip, CD2F1 mice, survival T/C
Assay: NCI In Vivo Anticancer Drug Screen. Data for tumor model P388 Leukemia (intraperitoneal) in CD2F1 (CDF1) mice
Conditions: endpoint: median survival time, higher = longer survival
Procedure, shortened: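 Mice carrying the transplanted tumor received test compound or vehicle. Survival was recorded in each group, and the value is the treated-group measurement divided by that of the vehicle-treated control group.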

[1] = dose: 100.0 mg/kg/injection, schedule: Q01DX001 (ip), vehicle: Klucel (hydroxypropylcellulose) (HPC)
[2] = dose: 37.5 mg/kg/injection, schedule: Q01DX009 (ip), vehicle: saline with Tween-80
[3] = dose: 75.0 mg/kg/injection, schedule: Q04DX003 (ip), vehicle: saline with Tween-80
[4] = dose: 150.0 mg/kg/injection, schedule: Q04DX003 (ip), vehicle: saline with Tween-80
[5] = dose: 60.0 mg/kg/injection, schedule: Q01DX005 (ip), vehicle: Klucel (hydroxypropylcellulose) (HPC)
[6] = dose: 120.0 mg/kg/injection, schedule: Q01DX005 (ip), vehicle: Klucel (hydroxypropylcellulose) (HPC)
[7] = dose: 50.0 mg/kg/injection, schedule: Q01DX009 (ip), vehicle: saline with Tween-80
[8] = dose: 100.0 mg/kg/injection, schedule: Q01DX009 (ip), vehicle: saline with Tween-80
[9] = dose: 200.0 mg/kg/injection, schedule: Q01DX009 (ip), vehicle: saline with Tween-80
[10] = dose: 100.0 mg/kg/injection, schedule: Q01DX005 (ip), vehicle: saline

Measured: T/C

COc1ccc(C(c2cc(C(C)(C)C)cc(C(C)(C)C)c2O)N2CCCCC2)cc1 (stereo not drawn)
inactive: dose: 50.0 mg/kg/injection, schedule: Q01DX005 (ip), vehicle: distilled water + alcohol 97 % of control | dose: 100.0 mg/kg/injection, schedule: Q01DX005 (ip), vehicle: distilled water + alcohol 100 % of control | dose: 200.0 mg/kg/injection, schedule: Q01DX005 (ip), vehicle: distilled water + alcohol 99 % of control

NC(CC1=CS(=O)(=O)c2ccc(Cl)cc21)C(=O)O (stereo not drawn)
inactive: dose: 25.0 mg/kg/injection, schedule: Q01DX001 (ip), vehicle: Klucel (hydroxypropylcellulose) (HPC) 99 % of control | dose: 50.0 mg/kg/injection, schedule: Q01DX001 (ip), vehicle: Klucel (hydroxypropylcellulose) (HPC) 96 % of control | [1] 101 % of control

Cn1c(=O)n(CCn2c(=O)n(C)c3ccccc32)c2ccccc21
inactive: [1] 91 % of control | dose: 200.0 mg/kg/injection, schedule: Q01DX001 (ip), vehicle: Klucel (hydroxypropylcellulose) (HPC) 92 % of control | dose: 400.0 mg/kg/injection, schedule: Q01DX001 (ip), vehicle: Klucel (hydroxypropylcellulose) (HPC) 91 % of control

Nc1nc(N)c2c(ccc3c2ccn3Cc2cccc([N+](=O)[O-])c2)n1
inactive: dose: 1.56 mg/kg/injection, schedule: Q01DX005 (ip), vehicle: saline with Tween-80 100 % of control and 119 % of control | dose: 3.12 mg/kg/injection, schedule: Q01DX005 (ip), vehicle: saline with Tween-80 110 % of control

O=S(=O)(Nc1cc2c3ccccc3ccc2c2ccccc12)c1ccccc1
inactive: dose: 50.0 mg/kg/injection, schedule: Q01DX009 (ip), vehicle: Klucel (hydroxypropylcellulose) (HPC) 96 % of control | dose: 100.0 mg/kg/injection, schedule: Q01DX009 (ip), vehicle: Klucel (hydroxypropylcellulose) (HPC) 105 % of control | dose: 200.0 mg/kg/injection, schedule: Q01DX009 (ip), vehicle: Klucel (hydroxypropylcellulose) (HPC) 100 % of control

CCOC(=O)c1ccc(N)cc1
inactive: dose: 12.5 mg/kg/injection, schedule: Q01DX009 (ip), vehicle: distilled water + Tween-80 105 % of control | dose: 25.0 mg/kg/injection, schedule: Q01DX009 (ip), vehicle: distilled water + Tween-80 105 % of control | [2] 100 % of control | dose: 37.5 mg/kg/injection, schedule: Q04DX003 (ip), vehicle: saline with Tween-80 91 % of control | dose: 50.0 mg/kg/injection, schedule: Q01DX009 (ip), vehicle: distilled water + Tween-80 104 % of control | dose: 75.0 mg/kg/injection, schedule: Q01DX009 (ip), vehicle: saline with Tween-80 109 % of control | [3] 100 % of control | dose: 100.0 mg/kg/injection, schedule: Q01DX009 (ip), vehicle: distilled water + Tween-80 110 % of control | dose: 150.0 mg/kg/injection, schedule: Q01DX009 (ip), vehicle: saline with Tween-80 100 % of control | [4] 91 % of control | dose: 200.0 mg/kg/injection, schedule: Q01DX009 (ip), vehicle: distilled water + Tween-80 102 % of control

Clc1ccc(CNc2ncnc3[nH]ncc23)c(Cl)c1
inactive: dose: 100.0 mg/kg/injection, schedule: Q04DX003 (ip), vehicle: saline with Tween-80 100 % of control | dose: 200.0 mg/kg/injection, schedule: Q04DX003 (ip), vehicle: saline with Tween-80 100 % of control

Cc1n[nH]c(=O)n(/N=C/c2ccc(N(C)C)cc2)c1=O
inactive: [5] 98 % of control | [6] 97 % of control

COP(=O)(O)OC.[Th]
inactive: [7] 118 % of control | [8] 88 % of control | [9] 90 % of control

CC(C)c1cc(C2C(=O)c3ccccc3C2=O)cc(C(C)C)c1O
inactive: dose: 100.0 mg/kg/injection, schedule: Q04DX002 (ip), vehicle: saline 106 % of control | dose: 200.0 mg/kg/injection, schedule: Q04DX002 (ip), vehicle: saline 114 % of control | dose: 400.0 mg/kg/injection, schedule: Q04DX002 (ip), vehicle: saline 108 % of control

c1ccc(OCC(COc2ccccc2)(COc2ccccc2)COc2ccccc2)cc1
inactive: dose: 7.5 mg/kg/injection, schedule: Q01DX009 (ip), vehicle: saline with Tween-80 107 % of control | dose: 15.0 mg/kg/injection, schedule: Q01DX009 (ip), vehicle: saline with Tween-80 107 % of control | dose: 30.0 mg/kg/injection, schedule: Q01DX009 (ip), vehicle: saline with Tween-80 104 % of control

O=C1C2=C(C(=O)c3cnccc31)C1C=CC2CC1 (stereo not drawn)
inactive: dose: 25.0 mg/kg/injection, schedule: Q01DX005 (ip), vehicle: DMSO 98 % of control | dose: 50.0 mg/kg/injection, schedule: Q01DX005 (ip), vehicle: DMSO 92 % of control and 98 % of control | dose: 50.0 mg/kg/injection, schedule: Q01DX005 (ip), vehicle: Klucel (hydroxypropylcellulose) (HPC) 106 % of control | dose: 100.0 mg/kg/injection, schedule: Q01DX005 (ip), vehicle: DMSO 122 % of control | dose: 100.0 mg/kg/injection, schedule: Q01DX005 (ip), vehicle: Klucel (hydroxypropylcellulose) (HPC) 103 % of control | dose: 200.0 mg/kg/injection, schedule: Q01DX005 (ip), vehicle: Klucel (hydroxypropylcellulose) (HPC) 98 % of control

CCOc1c(N=Nc2ccccc2C)c(C)nn1C(=S)S
inactive: [5] 97 % of control | [6] 95 % of control | dose: 240.0 mg/kg/injection, schedule: Q01DX005 (ip), vehicle: Klucel (hydroxypropylcellulose) (HPC) 97 % of control

NCCCO[C@H]1CO[C@H]2[C@@H]1OC[C@H]2OCCCN
inactive: dose: 50.0 mg/kg/injection, schedule: Q01DX005 (ip), vehicle: saline 100 % of control | [10] 102 % of control

CC(C)=CC(=O)C1=C(O)C(=O)OC1
inactive: [7] 109 % of control | [8] 108 % of control | [9] 107 % of control

Cc1c(O)c(O)cc[n+]1C1OC(CO)C(O)C1O (stereo not drawn)
inactive: [10] 98 % of control | dose: 200.0 mg/kg/injection, schedule: Q01DX005 (ip), vehicle: saline 100 % of control | dose: 400.0 mg/kg/injection, schedule: Q01DX005 (ip), vehicle: saline 102 % of control

O=[N+]([O-])c1csc([N+](=O)[O-])c1
inactive: dose: 9.37 mg/kg/injection, schedule: Q01DX009 (ip), vehicle: saline with Tween-80 109 % of control | dose: 18.75 mg/kg/injection, schedule: Q01DX009 (ip), vehicle: saline with Tween-80 118 % of control | [2] 122 % of control | [3] 100 % of control | [4] 100 % of control | dose: 300.0 mg/kg/injection, schedule: Q04DX003 (ip), vehicle: saline with Tween-80 109 % of control

ON=C1CCCCCCC1
inactive: dose: 50.0 mg/kg/injection, schedule: Q01DX009 (ip), vehicle: suspension in saline 97 % of control | dose: 100.0 mg/kg/injection, schedule: Q01DX009 (ip), vehicle: suspension in saline 104 % of control | dose: 200.0 mg/kg/injection, schedule: Q01DX009 (ip), vehicle: suspension in saline 103 % of control | dose: 400.0 mg/kg/injection, schedule: Q01DX009 (ip), vehicle: suspension in saline 98 % of control

CCCCCCCCCCCCCCCC[n+]1cccc(C(=O)NCO)c1
inactive: dose: 6.25 mg/kg/injection, schedule: Q01DX009 (ip), vehicle: saline with Tween-80 100 % of control | dose: 12.5 mg/kg/injection, schedule: Q01DX009 (ip), vehicle: saline with Tween-80 104 % of control | dose: 25.0 mg/kg/injection, schedule: Q01DX009 (ip), vehicle: saline with Tween-80 104 % of control
